# Counter-ions that a name gives are not always drawn. Like-named read-outs stand apart in the source and are kept apart here.
# Columns and labels:
# [1] = aqueous solution, room temperature; cited from earlier work
# [2] = ambient temperature, no visible precipitation after 2 weeks
# Procedure: In each case, the solubility was calculated to refer to pure MGDA, without hydrate water.
# In addition, the concentrations of the saturated solutions at ambient temperature in dependence of the ee value of MGDA and depending on the concentration of (B) were determined.
"concentration of saturated solutions ([2]; ee value of MGDA-Na3 11 %, addition of VDA-Na3 5.5 weight-%)","concentration of saturated solutions ([2]; ee value of MGDA-Na3 39 %, addition of VDA-Na3 2.8 weight-%)","concentration of saturated solutions ([2]; ee value of MGDA-Na3 39 %, addition of VDA-Na3 5.5 weight-%)","concentration of saturated solutions ([2]; ee value of MGDA-Na3 39 %, addition of VDA-Na3 8.3 weight-%)","concentration of saturated solutions ([2]; ee value of MGDA-Na3 82 %, addition of VDA-Na3 2.8 weight-%)","concentration of saturated solutions ([2]; ee value of MGDA-Na3 82 %, addition of VDA-Na3 8.3 weight-%)","concentration of saturated solutions ([2]; ee value of MGDA-Na3 82 %, addition of VDA-Na3 zero weight-%)","concentration of saturated solutions ([2]; ee value of MGDA-Na3 96 %, addition of VDA-Na3 5.5 weight-%)","concentration of saturated solutions ([2]; ee value of MGDA-Na3 96 %, addition of VDA-Na3 zero weight-%)","concentration of saturated solutions ([2]; ee value of MGDA-Na3 zero %, addition of VDA-Na3 zero weight-%)",Structure (SMILES),concentration of solutions that can be made and stored [1]
,,,,,,,,,,"CC(C(=O)O)N(CC(=O)O)CC(=O)O (racemic) [racemic MGDA trisodium salt, methyl glycine diacetic acid]",about 40 % by weight
49 weight-%,48 weight-%,47 weight-%,43 weight-%,58 weight-%,53 weight-%,46 weight-%,57 weight-%,49 weight-%,≤40 weight-%,"CC(C(=O)O)N(CC(=O)O)CC(=O)O (centres unmarked) [MGDA-Na3, methyl glycine diacetic acid]",
